The text below walks through data of US10428051B2 (priority 2015, dated 2019).

This assay addresses human σ1 receptor (Homo sapiens, UniProt Q99720). Nature of the assay: biochemical. Details: μ and σ1 dual (binding to the σ1 receptor and the μ-opioid receptor expressed as Ki): key to the marks not given beside the values. The assay is classed as binding.

A value given as a limit tells only on which side of the number the result lay.

Chain of human σ1 receptor (Q99720 whole entry): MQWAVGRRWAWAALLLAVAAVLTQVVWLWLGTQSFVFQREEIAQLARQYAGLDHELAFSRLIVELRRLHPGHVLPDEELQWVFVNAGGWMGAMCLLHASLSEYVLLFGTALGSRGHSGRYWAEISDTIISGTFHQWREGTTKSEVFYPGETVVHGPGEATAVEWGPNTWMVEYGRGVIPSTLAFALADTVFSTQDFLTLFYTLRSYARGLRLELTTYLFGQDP

With `CCOCCN1CCN(C2(CN(C(=O)CC)c3ncccc3F)CCOC(C)(C)C2)CC1` (stereo not drawn) [Example 169, N-((4-(4-(2-ethoxyethyl)piperazin-1-yl)-2,2-dimethyltetrahydro-2H-pyran-4-yl)methyl)-N-(3-fluoropyridin-2-yl)propionamide], the inhibition constant Ki is more than 500 nM.
Same read-out and setting: in the case of `CCC(=O)N(CC1(N2CCN(CCc3ccncc3)CC2)CCOCC1)c1cccc(C(F)(F)F)n1` [Example 206, N-((4-(4-(2-(pyridin-4-yl)ethyl)piperazin-1-yl)tetrahydro-2H-pyran-4-yl)methyl)-N-(6-(trifluoromethyl)pyridin-2-yl)propionamide] it was less than 500 nM.
The compound `CCC(=O)N(CC1(N2CCN(Cc3ccc(F)cn3)CC2)CC1)c1ccccc1` [Example 121, N-((1-(4-((5-fluoropyridin-2-yl)methyl)piperazin-1-yl)cyclopropyl)methyl)-N-phenylpropionamide] displayed an inhibition constant (Ki) of more than 500 nM.
`CCC(=O)N(CC1(N2CCN(CCOC3CC3)CC2)CCOCC1)c1cccc(C(F)(F)F)n1` [Example 183, N-((4-(4-(2-cyclopropoxyethyl)piperazin-1-yl)tetrahydro-2H-pyran-4-yl)methyl)-N-(6-(trifluoromethyl)pyridin-2-yl)propionamide]: the Ki was less than 500 nM.
`CCC(=O)N(CC1(N2CCN(Cc3ccccc3)CC2)CC1)c1ccncc1` [Example 31, N-((1-(4-benzylpiperazin-1-yl)cyclopropyl)methyl)-N-(pyridin-4-yl)propionamide]: the “μ and σ1 dual (binding to the σ1 receptor and the μ-opioid receptor expressed as Ki)” value (“μ and σ1 dual” for short) was “++”.
Compound `CCC(=O)N(CC1(N2CCN(Cc3ccccn3)CC2)CCOCC1)c1ccccc1` [Example 102, N-phenyl-N-((4-(4-(pyridin-2-ylmethyl)piperazin-1-yl)tetrahydro-2H-pyran-4-yl)methyl)propionamide] displayed a Ki of more than 500 nM.
On the same count and under the same terms, in the case of `CCC(=O)N(CC1(N2CCN(C(C)CC)CC2)CCOCC1)c1ccccn1` (stereo not drawn) [Example 154, N-((4-(4-sec-butylpiperazin-1-yl)tetrahydro-2H-pyran-4-yl)methyl)-N-(pyridin-2-yl)propionamide] it was more than 500 nM.
As to `CCC(=O)N(CC1(N2CCN(CCO)CC2)CCOCC1)c1cccc(C(F)(F)F)n1` [Example 148, N-((4-(4-(2-hydroxyethyl)piperazin-1-yl)tetrahydro-2H-pyran-4-yl)methyl)-N-(6-(trifluoromethyl)pyridin-2-yl)propionamide], the Ki was more than 500 nM.
On to `CCC(=O)N(CC1(N2CCN(C(C)COC)CC2)CCOCC1)c1cccc(C(F)(F)F)n1` (stereo not drawn) [Example 112, N-((4-(4-(1-methoxypropan-2-yl)piperazin-1-yl)tetrahydro-2H-pyran-4-yl)methyl)-N-(6-(trifluoromethyl)pyridin-2-yl)propionamide], for which the “μ and σ1 dual” value was “++”.
`CCNC(=O)N(CC1(N2CCN(Cc3ccccc3)CC2)CC1)c1ccccc1` [Example 52, 1-((1-(4-benzylpiperazin-1-yl)cyclopropyl)methyl)-3-ethyl-1-phenylurea] returned a Ki of less than 500 nM.
On to `CCC(=O)N(CC(C)(C)N1CCN(CCOC(C)C)CC1)c1ncccc1F` [Example 73, N-(3-fluoropyridin-2-yl)-N-(2-(4-(2-isopropoxyethyl)piperazin-1-yl)-2-methylpropyl)propionamide], for which the “μ and σ1 dual” value is “++”.
Take `CCC(=O)N(CC1(N2CCN(Cc3ccccc3)CC2)CCOCC1)c1ccccc1O` [Example 54, N-((4-(4-benzylpiperazin-1-yl)tetrahydro-2H-pyran-4-yl)methyl)-N-(2-hydroxyphenyl)propionamide]: the Ki is less than 500 nM.
Regarding `CCC(=O)N(CC(C)(C)N1CCN(CCc2ccccc2F)CC1)c1ncccc1F` [Example 69, N-(2-(4-(2-fluorophenethyl)piperazin-1-yl)-2-methylpropyl)-N-(3-fluoropyridin-2-yl)propionamide], the “μ and σ1 dual” value was “++”.
With `CCC(=O)N(CC1(N2CCN(Cc3cncc(F)c3)CC2)CCOCC1)c1ccccc1` [Example 107, N-((4-(4-((5-fluoropyridin-3-yl)methyl)piperazin-1-yl)tetrahydro-2H-pyran-4-yl)methyl)-N-phenylpropionamide], the Ki was less than 500 nM.
Compound `CCC(=O)N(CC1(N2CCN(Cc3ccccc3)CC2)CCOC(C)(C)C1)c1ccccn1` (stereo not drawn) [Example 16, N-((4-(4-benzylpiperazin-1-yl)-2,2-dimethyltetrahydro-2H-pyran-4-yl)methyl)-N-(pyridin-2-yl)propionamide] came in with a Ki of less than 500 nM.
As for `CCC(=O)N(CC1(N2CCN(Cc3ccccc3)CC2)CCOCC1)c1ncccc1C#N` [Example 58, N-((4-(4-benzylpiperazin-1-yl)tetrahydro-2H-pyran-4-yl)methyl)-N-(3-cyanopyridin-2-yl)propionamide], the “μ and σ1 dual” value was “++”.
`CCC(=O)N(CC1(C2CCN(CC(C)C)CC2)CCOCC1)c1cccc(C(F)(F)F)n1` [Example 178, N-((4-(1-isobutylpiperidin-4-yl)tetrahydro-2H-pyran-4-yl)methyl)-N-(6-(trifluoromethyl)pyridin-2-yl)propionamide]: the “μ and σ1 dual” value is listed as “++”.
The compound `COCC(=O)N(CC1(N2CCN(Cc3ccccc3)CC2)CCOCC1)c1ccccc1` [Example 37, N-((4-(4-benzylpiperazin-1-yl)tetrahydro-2H-pyran-4-yl)methyl)-2-methoxy-N-phenylacetamide] returned a Ki of less than 500 nM.
The same measure, in the same setting: in the case of `CCC(=O)N(CC1(N2CCN(Cc3ccccc3)CC2)CC1)c1cccc(C#N)n1` [Example 97, N-((1-(4-benzylpiperazin-1-yl)cyclopropyl)methyl)-N-(6-cyanopyridin-2-yl)propionamide] it was less than 500 nM.
Still for that read-out and setting: in the case of `CCC(=O)N(CC1(N2CCN(Cc3ccccc3)CC2)CCOCC1)c1ccncc1` [Example 12, N-((4-(4-benzylpiperazin-1-yl)tetrahydro-2H-pyran-4-yl)methyl)-N-(pyridin-4-yl)propionamide] it was more than 500 nM; in that of `CCC(=O)N(CC1(N2CCN(Cc3ccccc3)CC2)CCOCC1)C(C)c1ccccc1` (stereo not drawn) [Example 13, N-((4-(4-benzylpiperazin-1-yl)tetrahydro-2H-pyran-4-yl)methyl)-N-(1-phenylethyl)propionamide], less than 100 nM.
The compound `CCC(=O)N(CC1(N2CCN(Cc3ccc(C(F)(F)F)nc3)CC2)CCOCC1)c1ccccc1` [Example 103, N-phenyl-N-((4-(4-((6-(trifluoromethyl)pyridin-3-yl)methyl)piperazin-1-yl)tetrahydro-2H-pyran-4-yl)methyl)propionamide] showed a Ki of more than 500 nM.
As for `CCC(=O)N(CC1(N2CCN(CC(C)C)CC2)CCOCC1)c1ccccn1` [Example 151, N-((4-(4-isobutylpiperazin-1-yl)tetrahydro-2H-pyran-4-yl)methyl)-N-(pyridin-2-yl)propionamide], the Ki is more than 500 nM.
`CCC(=O)N(CC(C)(C)N1CCN(CCc2ncccc2F)CC1)c1ccccc1F` [Example 71, N-(2-fluorophenyl)-N-(2-(4-(2-(3-fluoropyridin-2-yl)ethyl)piperazin-1-yl)-2-methylpropyl)propionamide]: the “μ and σ1 dual” value was “++”.
